Data from patent publication US20040058989A1, “Pharmaceutical composition containing citalopram” (H. Lundbeck A/S, priority 2001, published 2004).

Experiment: Particle size distribution by laser diffraction (Sympatec Helos)
Assay type: physicochemical
Protocol: As used herein, “particle size distribution” means the distribution of equivalent spherical diameters as determined by laser diffraction in a Sympatec Helos equipment. The particle size distributions for fillers and uncompacted citalopram are determined at 1 bar dispersive pressure, whereas the particle size distributions for compacted granulates are determined at 0.2 bar dispersive pressure in order to avoid deaggregation of the granules leading to erroneous results. “Median particle size”, correspondingly, means the median of said particle size distribution.

[1] = Sympatec Helos, 1 bar dispersive pressure for fillers and uncompacted citalopram, 0.2 bar for compacted granulates

Particle size distribution, quantile 10% [1]: 1.2 μm
Particle size distribution, quantile 50% (median particle size) [1]: 14.0 μm
Particle size distribution, quantile 90% [1]: 72.3 μm
Particle size distribution, quantile 95% [1]: 97.0 μm
Particle size (product of the process used for preparation of citalopram hydrobromide, general statement): 2-20 μm
Compound: CN(C)CCCC1(c2ccc(F)cc2)OCc2cc(C#N)ccc21 (centres unmarked) [Citalopram HBr]
